Experimental data reported in PubChem BioAssay AID248 (DTP/NCI, 2004).
Where “and” joins values, the source holds several entries; their conditions need not be identical. Identical values can stand only once. Toxic doses and inconclusive results are not listed. No stated cut-off is given here; in the data, active means T/C of 150% or more; inactive means T/C below 125%. Bridge positions count the residues as written; N and C are the ends. Square brackets hold non-standard residues; d marks the D form. Peptide text beside a SMILES is read from it. I, II: the chains in the order shown. * marks the point of attachment. Quinoxaline2carbonyl = O=C(c1cnc2ccccc2n1)*; NMeV = CN[CH](C(=O)O)C(C)C; NMeC = CN[CH](CS)C(=O)O

Test system: L1210 leukemia ip in BDF1 mice, survival T/C
Test: NCI In Vivo Anticancer Drug Screen. Data for tumor model L1210 Leukemia (intraperitoneal) in B6D2F1 (BDF1) mice
Details: endpoint: mean survival time, higher = longer survival
Method in brief: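 Antitumor effect is assessed in tumor-bearing animals. Survival in the compound arm is compared with a vehicle-dosed control arm and expressed as their quotient.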

[1] = dose: 100.0 mg/kg/injection, schedule: Q01DX001 (ip), vehicle: saline
[2] = dose: 100.0 mg/kg/injection, schedule: Q01DX009 (ip), vehicle: saline
[3] = dose: 100.0 mg/kg/injection, schedule: Q04DX003 (ip), vehicle: saline
[4] = dose: 200.0 mg/kg/injection, schedule: Q01DX001 (ip), vehicle: saline
[5] = dose: 200.0 mg/kg/injection, schedule: Q04DX003 (ip), vehicle: saline
[6] = dose: 400.0 mg/kg/injection, schedule: Q01DX001 (ip), vehicle: saline
[7] = dose: 100.0 mg/kg/injection, schedule: Q01DX009 (ip), vehicle: Klucel (hydroxypropylcellulose) (HPC)
[8] = dose: 200.0 mg/kg/injection, schedule: Q01DX009 (ip), vehicle: Klucel (hydroxypropylcellulose) (HPC)
[9] = dose: 400.0 mg/kg/injection, schedule: Q01DX009 (ip), vehicle: Klucel (hydroxypropylcellulose) (HPC)
[10] = dose: 100.0 mg/kg/injection, schedule: Q04DX003 (ip), vehicle: saline with Tween-80
[11] = dose: 200.0 mg/kg/injection, schedule: Q04DX003 (ip), vehicle: saline with Tween-80
[12] = dose: 100.0 mg/kg/injection, schedule: Q04DX003 (ip), vehicle: Klucel (hydroxypropylcellulose) (HPC)
[13] = dose: 200.0 mg/kg/injection, schedule: Q04DX003 (ip), vehicle: Klucel (hydroxypropylcellulose) (HPC)
[14] = dose: 400.0 mg/kg/injection, schedule: Q04DX003 (ip), vehicle: Klucel (hydroxypropylcellulose) (HPC)
[15] = dose: 100.0 mg/kg/injection, schedule: Q04DX002 (ip), vehicle: saline with Tween-80
[16] = dose: 200.0 mg/kg/injection, schedule: Q04DX002 (ip), vehicle: saline with Tween-80
[17] = dose: 100.0 mg/kg/injection, schedule: Q04DX002 (ip), vehicle: Klucel (hydroxypropylcellulose) (HPC)
[18] = dose: 200.0 mg/kg/injection, schedule: Q04DX002 (ip), vehicle: Klucel (hydroxypropylcellulose) (HPC)
[19] = dose: 100.0 mg/kg/injection, schedule: Q01DX009 (ip), vehicle: saline with Tween-80
[20] = dose: 200.0 mg/kg/injection, schedule: Q01DX009 (ip), vehicle: saline with Tween-80
[21] = dose: 400.0 mg/kg/injection, schedule: Q01DX009 (ip), vehicle: saline with Tween-80

Measured: T/C

CCOC(=O)C(Cc1ccccc1[N+](=O)[O-])C(=O)OCC
inactive: [1] 103 % of control | [2] 103 % of control and 89 % of control | dose: 100.0 mg/kg/injection, schedule: Q04DX002 (ip), vehicle: saline 112 % of control and 113 % of control | [3] 94 % of control | [4] 101 % of control | dose: 200.0 mg/kg/injection, schedule: Q01DX009 (ip), vehicle: saline 93 % of control and 105 % of control | dose: 200.0 mg/kg/injection, schedule: Q04DX002 (ip), vehicle: saline 108 % of control | [5] 103 % of control | [6] 100 % of control | dose: 400.0 mg/kg/injection, schedule: Q01DX009 (ip), vehicle: saline 96 % of control and 105 % of control | dose: 400.0 mg/kg/injection, schedule: Q04DX002 (ip), vehicle: saline 102 % of control and 108 % of control | dose: 400.0 mg/kg/injection, schedule: Q04DX003 (ip), vehicle: saline 103 % of control

[N-]=[N+]=CC(=O)NCC(N)=O
inactive: dose: 125.0 mg/kg/injection, schedule: Q01DX009 (ip), vehicle: other 110 % of control | dose: 125.0 mg/kg/injection, schedule: Q01DX009 (sc), vehicle: other 91 % of control | dose: 222.0 mg/kg/injection, schedule: Q01DX Z (ip), vehicle: water 121 % of control | dose: 250.0 mg/kg/injection, schedule: Q01DX009 (sc), vehicle: other 97 % of control | dose: 500.0 mg/kg/injection, schedule: Q01DX009 (sc), vehicle: other 103 % of control | dose: 750.0 mg/kg/injection, schedule: Q01DX009 (sc), vehicle: other 97 % of control | dose: 750.0 mg/kg/injection, schedule: Q01DX Z (ip), vehicle: water 104 % of control

CCOC(=O)CCSC(C)(C)C(=O)OCC
inactive: [7] 97 % of control | [8] 101 % of control | [9] 100 % of control

CCOC(=O)CN1C(=O)C(Cl)=C(Cl)C1=O
inactive: dose: 3.12 mg/kg/injection, schedule: Q01DX009 (ip), vehicle: saline with Tween-80 98 % of control | dose: 6.25 mg/kg/injection, schedule: Q01DX009 (ip), vehicle: saline with Tween-80 98 % of control | dose: 12.5 mg/kg/injection, schedule: Q01DX009 (ip), vehicle: saline with Tween-80 96 % of control

[CeH3]
inactive: dose: 100.0 mg/kg/injection, schedule: Q04DX003 (sc), vehicle: olive oil, sesame oil, peanut oil 98 % of control | dose: 200.0 mg/kg/injection, schedule: Q04DX003 (sc), vehicle: olive oil, sesame oil, peanut oil 108 % of control | dose: 400.0 mg/kg/injection, schedule: Q04DX003 (sc), vehicle: olive oil, sesame oil, peanut oil 91 % of control

CCC1(NS(=O)(=O)c2ccc(NC(C)=O)cc2)C(=O)N(C)C(=O)N(C)C1=O
inactive: [1] 95 % of control | [4] 91 % of control | [6] 91 % of control

CCOP(=S)(OCC)SCc1ccc(C)cc1
inactive: [10] 98 % of control | [11] 103 % of control | dose: 400.0 mg/kg/injection, schedule: Q04DX003 (ip), vehicle: saline with Tween-80 110 % of control

CS(=O)(=O)Cc1ccc([N+](=O)[O-])cc1
inactive: [12] 103 % of control | [13] 109 % of control | [14] 103 % of control

NC(=O)NOCC1NC(=O)C(CONC(N)=O)NC1=O (stereo not given)
inactive: [7] 93 % of control | [12] 104 % of control | [8] 102 % of control | [13] 89 % of control | [9] 96 % of control | [14] 95 % of control

O=S(=O)(O)c1ccccn1
inactive: [3] 98 % of control | [5] 93 % of control

Cc1ccc(NC(=O)NCCO)cc1C
inactive: [15] 95 % of control | [16] 95 % of control

COC(=O)C(N)CCCCNC(c1ccccc1)(c1ccccc1)c1ccccc1 (stereo not given)
inactive: dose: 50.0 mg/kg/injection, schedule: Q01DX009 (ip), vehicle: saline 107 % of control | [2] 86 % of control

C=CS(=O)CCCCCCCC (stereo not given)
inactive: [17] 102 % of control | [18] 102 % of control

C(=C(c1ccccc1)c1ccccc1)c1ccccn1
inactive: [19] 97 % of control | [10] 98 % of control | [20] 100 % of control | [11] 93 % of control | [21] 97 % of control

CCCCCCCCCCCC(=O)NC(=S)Nc1ccccc1C(=O)OC
inactive: dose: 25.0 mg/kg/injection, schedule: Q01DX009 (ip), vehicle: saline with Tween-80 93 % of control | dose: 50.0 mg/kg/injection, schedule: Q01DX009 (ip), vehicle: saline with Tween-80 93 % of control | [19] 96 % of control and 92 % of control | [15] 102 % of control and 109 % of control | [20] 104 % of control and 86 % of control and 90 % of control | [16] 105 % of control and 89 % of control | [21] 94 % of control and 108 % of control | dose: 400.0 mg/kg/injection, schedule: Q04DX002 (ip), vehicle: saline with Tween-80 94 % of control and 88 % of control

CC1(C)N=C(N)N=C(N)N1c1cccc(OCCCOc2ccc([N+](=O)[O-])cc2)c1
inactive: [1] 91 % of control

CCCCCCCCCC(=O)N1CCCCCC1
inactive: [17] 98 % of control | [18] 95 % of control | dose: 400.0 mg/kg/injection, schedule: Q04DX002 (ip), vehicle: Klucel (hydroxypropylcellulose) (HPC) 88 % of control

CCCCCCCCCCCCC(CCCCCCCCCCC)CCCCCCCCCCCC
inactive: dose: 100.0 mg/kg/injection, schedule: Q01DX001 (ip), vehicle: saline with Tween-80 97 % of control | dose: 200.0 mg/kg/injection, schedule: Q01DX001 (ip), vehicle: saline with Tween-80 97 % of control | dose: 400.0 mg/kg/injection, schedule: Q01DX001 (ip), vehicle: saline with Tween-80 96 % of control

CC1NC(=O)C(NC(=O)c2cnc3ccccc3n2)COC(=O)C(C(C)C)N(C)C(=O)C2CSSCC(C(=O)N(C)C(C(C)C)C(=O)OCC(NC(=O)c3cnc4ccccc4n3)C(=O)NC(C)C(=O)N2C)N(C)C1=O (stereo not given) (I: Quinoxaline2carbonyl-SA[NMeC][NMeV] / II: Quinoxaline2carbonyl-SA[NMeC][NMeV]; ester I:1-II:C, I:C-II:1; disulfide I:3-II:3; configuration not given here)
inactive: dose: 12.5 micrograms/kg/injection, schedule: Q01DX009 (ip), vehicle: other 106 % of control | dose: 25.0 micrograms/kg/injection, schedule: Q01DX009 (ip), vehicle: other 116 % of control | dose: 50.0 micrograms/kg/injection, schedule: Q01DX009 (ip), vehicle: other 119 % of control | dose: 100.0 micrograms/kg/injection, schedule: Q01DX009 (ip), vehicle: other 122 % of control

CCCCCC(=C/c1ccccc1)/C=N/N=C(N)N
inactive: dose: 15.0 mg/kg/injection, schedule: Q01DX Z (ip), vehicle: saline 93 % of control | dose: 30.0 mg/kg/injection, schedule: Q01DX Z (ip), vehicle: saline 104 % of control | dose: 30.0 mg/kg/injection, schedule: Q01DX Z (oral), vehicle: saline 94 % of control | dose: 60.0 mg/kg/injection, schedule: Q01DX Z (ip), vehicle: saline 98 % of control | dose: 60.0 mg/kg/injection, schedule: Q01DX Z (oral), vehicle: saline 90 % of control | dose: 120.0 mg/kg/injection, schedule: Q01DX Z (oral), vehicle: saline 94 % of control

OCCNCc1ccc(O)cc1
inactive: dose: 100.0 mg/kg/injection, schedule: Q01DX009 (ip), vehicle: water 100 % of control | dose: 100.0 mg/kg/injection, schedule: Q04DX003 (ip), vehicle: water 103 % of control | dose: 200.0 mg/kg/injection, schedule: Q01DX009 (ip), vehicle: water 105 % of control | dose: 200.0 mg/kg/injection, schedule: Q04DX003 (ip), vehicle: water 103 % of control | dose: 400.0 mg/kg/injection, schedule: Q01DX009 (ip), vehicle: water 102 % of control | dose: 400.0 mg/kg/injection, schedule: Q04DX003 (ip), vehicle: water 103 % of control

Cc1nn(C)c(N)c1N=O
inactive: dose: 50.0 mg/kg/injection, schedule: Q01DX009 (ip), vehicle: Klucel (hydroxypropylcellulose) (HPC) 102 % of control | [7] 98 % of control | [8] 102 % of control
